Reference: patent publication US7335640B2, “Administration of hypocretin-1 for treatment of narcolepsy” (The Regents of the University of California, priority 1999, dated 2008)
Entries after “also recorded” stand apart in the source; their conditions may differ.

How the values were obtained:
[1] = in vivo; cited from earlier work
REM sleep = settings: intracerebroventricular administration; cited from earlier work
[2] = Hcrt-1 levels by solid-phase RIA, narcoleptic dog; type: in vivo
Method: In order to assess the effect of the intravenous Hcrt-1 injection on central levels of the compound, cerebrospinal fluid (CSF) and blood serum was collected and analyzed after infusion of Hcrt-1. In these studies, Hcrt-1 was injected intravenously as in the behavioral studies into two Doberman pinschers, one narcoleptic, and one control that had been anesthetized with Fluothane anesthesia. Saline was injected in a third dog, a non-narcoleptic control. Prior to injection and at 15, 30 min and one hour intervals after injection, CSF was collected from the cisterna magna with a spinal needle and then quickly frozen at −20. Hypocretin was extracted from 0.5-1 ml samples with reverse a phase SEP-PAK C18 column. An ^125I Hcrt-1 radioimmunoassay was used to measure levels in reconstituted aliquots (described below).
(§1) Prior to RIA, Hcrt-1 is extracted from the CSF or plasma sample. This is achieved by acidification of the sample with 1% TFA followed by loading onto a C18 Sep-Column, washing the column with 1% TFA, and eluting the peptide with 1% TFA/40% acetonitrile. The eluant is then dried down and re-suspended in RIA buffer ready for assay.
The 96-well plates are first coated with protein A(Sigma, binding capacity 9-11 mg of human IgG per mg) by adding 0.1 μg in 100 μl of 0.1M sodium bicarbonate, pH9, to each well. The plates are normally prepared in advance and can be stored for several weeks at 4° C. when tightly wrapped to prevent drying out. However, it is possible to use them after approximately 2 h incubation at room temperature. The protein A solution is then discarded and the plates washed 3 times in a wash buffer consisting of 0.15M K2HPO4, 0.2 mM ascorbic acid, 0.2% Tween 20, pH7.5 and blotted on a paper towel. Next, 200 μl of assay buffer (same as wash buffer plus 0.1% gelatin) is pipetted into each well and left at room temperature for 30 min. This step is included in an attempt to remove protein A bound with only low affinity to the plate which might otherwise dissociate at later stages in the assay thereby removing bound antibody and tracer. After dumping this solution and blotting, 50 μl of the appropriate concentration of antibody diluted with assay buffer is added to all but 4 wells. To these 4 wells are added assay buffer alone to provide an index of non-specific binding. The antibody dilution used is that which is pre-determined to produce 20-30% maximum binding in the assay. The wells are then left for 2 h at room temperature. […]
A 2 h pre-incubation period at room temperature then follows. […] Subsequently the contents of the wells are discarded and the wells washed 3 times with wash buffer and blotted prior to addition of Microscint 20 and counting in the Top Count plate reader. […]

Hcrt-1 antiserum = assay: solid-phase radioimmunoassay (RIA) for Hcrt-1; type: binding; settings: competition with 125I-labeled Hcrt-1
Description: Furthermore, sensitivity is increased over that obtained with more traditional methods using identical antibodies and assay volumes. In this system, the antibody is immobilized onto the surface of 96-well Immulon II-coated plates (Dynatech) through attachment of the constant region of the immunoglobulin (Ig) molecule to the purified bacterial wall protein-protein A (the use of this protein greatly increases the capacity of the wells for antibody thereby avoiding the necessity for antibody purification). […] After a pre-determined incubation period separation of bound from free tracer peptide is accomplished by simply pouring out the contents of the wells and washing with buffer. For example, the individual wells of a 96-well plate containing Ab-bound tracer peptide are then physically separated and counted in a gamma counter. […]
The Hcrt-1, iodinated Hcrt-1, and Hcrt-1 antiserum were obtained from Phoenix Pharmaceuticals, Inc. (530 Harbor Blvd, Belmont, Calif.). […] This enables direct reading of radioactivity in a Top Count plate reader (Packard) without the requirement to separate out individual wells.
The 96-well plates are first coated with protein A(Sigma, binding capacity 9-11 mg of human IgG per mg) by adding 0.1 μg in 100 μl of 0.1M sodium bicarbonate, pH9, to each well. […] The antibody dilution used is that which is pre-determined to produce 20-30% maximum binding in the assay. […]

[3] = test system: genetically narcoleptic Doberman pinschers; assay: actigraphy of sleep-wake periods and activity level; type: in vivo
Method: (§2) Six genetically narcoleptic Doberman pinschers (5 males and 1 female) served as subjects. We analyzed the effect of systemically administered Hcrt-1 on cataplexy with a modified food elicited cataplexy test (FECT). The effect of Hcrt-1 administration on sleep organization was determined using polygraph recording. The effect of Hcrt-1 administration on activity levels and the duration of sleep-waking states over the 24-hr period was determined with actigraphy.
(§3) One to 4 μg/kg of Hcrt-1 (orexin-A, #003-30, Phoenix Pharmaceuticals, Mountain View, Calif.) dissolved in normal saline (100 μg in 2 ml) was administered through the cephalic vein using a glass syringe. The glass syringe was pre-soaked in 1% BSA, rinsed in Milli-Q water, then dried at 60° C. prior to use. This treatment combined with the large volume of the dilutent used minimizes problems caused by the “stickiness” of the peptide. On control days, saline was administered in the same manner. Hcrt-1 or control injections were administered daily at the same time.
The effects of Hcrt-1 on sleep-wake periods were monitored continuously for 24 hrs/day with collar mounted actigraphs (Actiwatch, Mini Mitter Inc, Sundriver, Oreg.) while the animals remained in their home dog runs. Actigraphs were secured to a neck collar that was placed on the dogs throughout the period of study. Data were downloaded to a PC through an inductively coupled Actiwatch reader and further analyzed by a program of our design. The program could integrate total numbers of movements above a preset amplitude for a measurement of total level of activity in 5 minutes epochs. For analysis of sleep state, actigraphs were first calibrated by placing them on an animal instrumented for conventional polygraphic recording. A threshold was determined for discriminating polygraphically defined waking and sleep in 30-sec epochs. The durations of sleep periods were then counted and tabulated by computer. The sleep-wake bouts measured by actigraph correlated well with hypnograms obtained from polygraphic recording (r=0.84, p<0.001).
(§4) Data were analyzed with ANOVA, followed by post-hoc comparisons using Newman-Keuls tests. Bonferroni t-tests were done to compare the effect of Hcrt-1 on sleep stages measured with polygraphic recording. One sample t-tests were performed to test the significance of number of cataplectic attacks and FECT time (expressed as a percentage of baseline) after Hcrt-1 within each dose.
Actigraph measurements were used to calculate the duration of sleep and waking states for the nights following injection. First, comparisons of actigraphic measurements and polygraphically recorded sleep states were made and used to determine thresholds for distinguishing sleep and wake periods. Then wake and sleep state periods were quantified starting 2 hrs following administration. […] These effects lasted for more than 24 hrs (p<0.01, F=5.56, df=3, 15 and p<0.002, F=8.58, df=3, 15 for sleep and wake periods respectively). The frequency of sleep and wake bouts was reduced (p<0.05, F=3.35, df=3, 15 and p<0.05, F=3.40, df=3, 15, respectively) (FIG. 2b, 2c).

[4] = test system: genetically narcoleptic Doberman pinschers; assay: health and behavior observed throughout the study; type: in vivo
Method: as §2, §3

[5] = test system: genetically narcoleptic Doberman pinschers; assay: modified food elicited cataplexy test (FECT); type: in vivo; settings: for cataplexy (number of cataplectic attacks): FECT 4 min after administration; for FECT time (time to consume the food) / cataplexy (number of cataplectic attacks / falls): vs saline control
Method: as §2, §3
FECT was done by introducing a bowl of soft food (Pedigree, by Kalkan) in the home cage and counting the number of cataplectic attacks (including hind limb collapse and total cataplexies in which all four limbs collapse and the whole body contacts the floor) and total time required to eat the food (FECT time). All the FECTs began 4 min after the administration of Hcrt-1 or saline.
as §4

[6] = Hcrt-1 levels by solid-phase RIA, normal human; type: in vivo
Method: as §1
The 96-well plates are first coated with protein A(Sigma, binding capacity 9-11 mg of human IgG per mg) by adding 0.1 μg in 100 μl of 0.1M sodium bicarbonate, pH9, to each well. The plates are normally prepared in advance and can be stored for several weeks at 4° C. when tightly wrapped to prevent drying out. However, it is possible to use them after approximately 2 h incubation at room temperature. The protein A solution is then discarded and the plates washed 3 times in a wash buffer consisting of 0.15M K2HPO4, 0.2 mM ascorbic acid, 0.2% Tween 20, pH7.5 and blotted on a paper towel. Next, 200 μl of assay buffer (same as wash buffer plus 0.1% gelatin) is pipetted into each well and left at room temperature for 30 min. This step is included in an attempt to remove protein A bound with only low affinity to the plate which might otherwise dissociate at later stages in the assay thereby removing bound antibody and tracer. After dumping this solution and blotting, 50 μl of the appropriate concentration of antibody diluted with assay buffer is added to all but 4 wells. To these 4 wells are added assay buffer alone to provide an index of non-specific binding. The antibody dilution used is that which is pre-determined to produce 20-30% maximum binding in the assay. The wells are then left for 2 h at room temperature.
Standard solutions of Hcrt-1 are prepared in quadruplet ranging from 0.1 to 50 fmol in 50 μl. These standards (plus four blanks) are made up in RIA buffer. All dilutions are carried out in polypropylene tubes to minimize loss due to ‘sticking’. The contents of each tube are then transferred to the assay wells following dumping of the antibody solution, washing 3 times with wash buffer and blotting.
A 2 h pre-incubation period at room temperature then follows. At the end of this time 50 μl of assay buffer containing approximately 5,000 CPM of ^125I-labeled tracer peptide is added to each well and the plate left to incubate overnight at 4° C. (this final incubation step can be reduced to approx. 2 h with only slight loss of sensitivity). Subsequently the contents of the wells are discarded and the wells washed 3 times with wash buffer and blotted prior to addition of Microscint 20 and counting in the Top Count plate reader. Results from the Solid-Phase Radioimmunoassay (RIA) for Hypocretin (Hcrt-1) are shown below in Table I: […]

[7] = test system: genetically narcoleptic Doberman pinschers; assay: polygraphic recording of sleep-wake parameters; type: in vivo
Method: as §2
One to 4 μg/kg of Hcrt-1 (orexin-A, #003-30, Phoenix Pharmaceuticals, Mountain View, Calif.) dissolved in normal saline (100 μg in 2 ml) was administered through the cephalic vein using a glass syringe. The glass syringe was pre-soaked in 1% BSA, rinsed in Milli-Q water, then dried at 60° C. prior to use. This treatment combined with the large volume of the dilutent used minimizes problems caused by the “stickiness” of the peptide. […]
Polygraphic recording. […] Polygraphic variables were recorded for 4 hrs after Hcrt-1 (3 μg/kg) or saline injection.
as §4

[8] = 3 μg/kg, representative actigraph record
[9] = single dose, from 2 hrs after administration

iodinated Hcrt-1: iodinated Hcrt-1 reported in the literature to pass the BBB (QPLPDCCRQKTCSCRLYELLHGAGNHAAGILTL; Orexin-A iodinated; UniProt O43612 34-66, looked up)
passage of the BBB [1]: passes the BBB

Hcrt-1: Hcrt-1 (orexin-A, #003-30, Phoenix Pharmaceuticals) peptide dissolved in normal saline (QPLPDCCRQKTCSCRLYELLHGAGNHAAGILTL; Orexin-A; UniProt O43612 34-66, looked up)
REM sleep (REM sleep): selective suppression of REM sleep
Mean level ([2]; Blood serum): 0.011 nM
Range in levels ([2]; Blood serum): 5 to 16 fmol/mL
Mean level ([2]; Cerebrospinal fluid): 0.053 nM
Range in levels ([2]; Cerebrospinal fluid): 26 to 140 fmol/mL
IC50 value for this Hcrt-1 assay (Hcrt-1 antiserum): 2 fmol
motor activity ([3]; 3 μg/kg, after injection, vs saline): increased motor activity; also recorded: increase of motor activity was statistically significant at 0-30 and 30-60 minutes
onset of increase in motor activity after injection [3, 8]: ≤ 5 min
persistence of increase in motor activity [3, 8]: 60 min
sleep consolidation (sleep bout length) ([3]; periods of cataplexy suppression following repeated doses, vs baseline): consolidated (increased sleep bout length)
frequency of sleep bouts ([3]; single dose): reduced; also recorded: decrease in frequency
frequency of wake bouts ([3]; single dose): reduced
how long the effects on sleep and wake period duration lasted ([3]; single dose): more than 24 hrs
mean duration of sleep periods (sleep bout duration) [3, 9]: increased; also recorded: significant increase in sleep bout duration
mean duration of wake periods [3, 9]: increased
total duration of sleep ([3]; vs pre-drug levels): increased after Hcrt-1 as compared to pre-drug levels, but not significantly
feeding / rate of food consumption ([4]; period of cataplexy suppression after repeated doses): normal feeding during FECTs; also recorded: consumed their food at a normal rate
abnormal behaviors ([4]; throughout the study): no grooming, “wet dog shakes” or other abnormal behaviors
general health of the dogs ([4]; throughout the study): excellent health
cataplexy (number of cataplectic attacks) ([5]; 1 μg/kg intravenous): did not produce any change in cataplexy; also recorded: did not affect cataplexy
cataplexy (number of cataplectic attacks) ([5]; 2 μg/kg intravenous): did not produce any change in cataplexy; also recorded: did not affect cataplexy
FECT time (time to consume the food) ([5]; 3 μg/kg intravenous): reduction in the FECT time; also recorded: significant decrease
cataplexy (number of cataplectic attacks / falls) ([5]; 3 μg/kg intravenous): reduction in cataplexy; also recorded: significant decrease in the number of falls
FECT time (time to consume the food) ([5]; 4 μg/kg intravenous): significantly increased the FECT time
cataplexy (number of cataplectic attacks / falls) ([5]; 4 μg/kg intravenous): significantly increased the severity of cataplexy; also recorded: significantly increased the number of falls
effect on cataplexy across doses ([5]; 1 to 4 μg/kg intravenous, ANOVA): significant effect on cataplexy in a dose dependent manner; also recorded: dose dependent change in cataplexy
period without any cataplexy after repeated doses ([5]; after 3-5 doses, two of the 3 dogs treated): ≥ 3 days
time taken to finish the food during the period without cataplexy ([5]; after repeated doses): significantly reduced
period over which severity of cataplexy returned to pretreatment levels ([5]; after repeated doses, both dogs): 3 to 4 days
cataplexy after five doses (FIG. 1D) ([5]; five doses, more severely affected dog): complete suppression of cataplexy during the FECT observed on 3 tests given every other day over a 6 day period
cataplexy after three doses (FIG. 1C) ([5]; three doses, one dog): complete suppression of cataplexy for three consecutive days
Mean level ([6]; Blood serum): 0.01 nM
Range in levels ([6]; Blood serum): 8 to 14 fmol/mL
Mean level ([6]; Cerebrospinal fluid): 0.062 nM
Range in levels ([6]; Cerebrospinal fluid): 21 to 203 fmol/mL
REM sleep ([7]; 3 μg/kg, 4 hr post-injection period, vs saline): significant reduction; also recorded: significant decrease in REM sleep
nonREM sleep ([7]; after Hcrt-1 administration): without change
